# Measurements from patent US20170050957A1, “4-AMINO-6-(HETEROCYCLIC)PICOLINATES AND 6-AMINO-2-(HETEROCYCLIC)PYRIMIDINE-4-CARBOXYLATES AND THEIR USE AS HERBICIDES” (Dow AgroSciences LLC, priority 2013, published 2017).
# Where two headings read alike, the source gives them in different places.
# How the values were obtained:
# [1] = system: Key Broadleaf Weed and Crop Species; assay: Post-emergent Test II herbicidal activity (Table 15); format: in vivo; details: post-emergence, 336 h, 14 d; for pest or weed control at 35 g/ha: 35 g ai/ha; for pest or weed control at 70 g/ha: 70 g ai/ha; for pest or weed control at 140 g/ha: 140 g ai/ha
# How it was run: (§1)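 Visual injury rating (0 = none, 100% = complete kill) made 14 d after treatment, relative to untreated plants. Compounds in an acetone/DMSO/aqueous crop-oil/surfactant spray, at top rate and serial 1/2×-1/16× rates, were applied at 187 L/ha overhead to first-second true leaf plants raised 7-21 d in greenhouse.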
# [2] = system: Key Grass and Sedge Weeds as well as Grass Crops; assay: Post-emergent Test II herbicidal activity (Table 16); format: in vivo; details: post-emergence, 336 h, 14 d; for pest or weed control at 35 g/ha: 35 g ai/ha; for pest or weed control at 70 g/ha: 70 g ai/ha; for pest or weed control at 140 g/ha: 140 g ai/ha
# How it was run: as §1
# [3] = Abutilon theophrasti, velvetleaf (Abutilon theophrasti), read-out: Visual Growth Reduction (%) 14 Days After Application, ABUTH
# [4] = Amaranthus retroflexus, redroot pigweed (Amaranthus retroflexus), read-out: Visual Growth Reduction (%) 14 Days After Application, AMARE
# [5] = Brassica napus, oilseed rape, canola (Brassica napus), read-out: Visual Growth Reduction (%) 14 Days After Application, BRSNN
# [6] = Chenopodium album, lambsquarters (Chenopodium album), read-out: Visual Growth Reduction (%) 14 Days After Application, CHEAL
# [7] = Euphorbia heterophylla, wild poinsettia (Euphorbia heterophylla), read-out: Visual Growth Reduction (%) 14 Days After Application, EPHHL
# [8] = Helianthus annuus, sunflower (Helianthus annuus), read-out: Visual Growth Reduction (%) 14 Days After Application, HELAN
# [9] = Cyperus esculentus, yellow nutsedge (Cyperus esculentus), read-out: Visual Growth Reduction (%) 14 Days After Application, CYPES
# [10] = Echinochloa crus-galli, barnyardgrass (Echinochloa crus-galli), read-out: Visual Growth Reduction (%) 14 Days After Application, ECHCG
# [11] = Oryza sativa, rice (Oryza sativa), read-out: Visual Growth Reduction (%) 14 Days After Application, ORYSA
# [12] = Setaria faberi, giant foxtail (Setaria faberi), read-out: Visual Growth Reduction (%) 14 Days After Application, SETFA
# [13] = Triticum aestivum, wheat, spring (Triticum aestivum), read-out: Visual Growth Reduction (%) 14 Days After Application, TRZAS
# [14] = Zea mays, maize, corn (Zea mays), read-out: Visual Growth Reduction (%) 14 Days After Application, ZEAMX
Compound,melting point [°C],"pest or weed control at 35 g/ha [1, 3] [%]","pest or weed control at 70 g/ha [1, 3] [%]","pest or weed control at 140 g/ha [1, 3] [%]","pest or weed control at 70 g/ha [1, 4] [%]","pest or weed control at 140 g/ha [1, 4] [%]","pest or weed control at 35 g/ha [1, 5] [%]","pest or weed control at 70 g/ha [1, 5] [%]","pest or weed control at 140 g/ha [1, 5] [%]","pest or weed control at 35 g/ha [1, 6] [%]","pest or weed control at 70 g/ha [1, 6] [%]","pest or weed control at 140 g/ha [1, 6] [%]","pest or weed control at 35 g/ha [1, 7] [%]","pest or weed control at 70 g/ha [1, 7] [%]","pest or weed control at 140 g/ha [1, 7] [%]","pest or weed control at 35 g/ha [1, 8] [%]","pest or weed control at 70 g/ha [1, 8] [%]","pest or weed control at 140 g/ha [1, 8] [%]","pest or weed control at 35 g/ha [2, 9] [%]","pest or weed control at 70 g/ha [2, 9] [%]",other results
COC(=O)c1nc(-c2ccc3cc[nH]c3c2)nc(N)c1Cl [Compound 1.30],240 to 242,0 to 29,0 to 29,75 to 84,75 to 84,60 to 74,45 to 59,45 to 59,60 to 74,30 to 44,30 to 44,45 to 59,0 to 29,45 to 59,60 to 74,0 to 29,0 to 29,0 to 29,0 to 29,0 to 29,"pest or weed control at 35 g/ha [1, 4]: 0 to 29%; pest or weed control at 140 g/ha [2, 9]: 0 to 29%; pest or weed control at 35 g/ha [2, 10]: 0 to 29%; pest or weed control at 70 g/ha [2, 10]: 0 to 29%; pest or weed control at 140 g/ha [2, 10]: 0 to 29%; pest or weed control at 35 g/ha [2, 11]: 0 to 29%; pest or weed control at 70 g/ha [2, 11]: 0 to 29%; pest or weed control at 140 g/ha [2, 11]: 0 to 29%; pest or weed control at 35 g/ha [2, 12]: 0 to 29%; pest or weed control at 70 g/ha [2, 12]: 0 to 29%; pest or weed control at 140 g/ha [2, 12]: 0 to 29%; pest or weed control at 35 g/ha [2, 13]: 0 to 29%; pest or weed control at 70 g/ha [2, 13]: 0 to 29%; pest or weed control at 140 g/ha [2, 13]: 0 to 29%; pest or weed control at 35 g/ha [2, 14]: 0 to 29%; pest or weed control at 70 g/ha [2, 14]: 0 to 29%; pest or weed control at 140 g/ha [2, 14]: 0 to 29%"
Cn1ccc2cc(-c3nc(C(=O)O)c(Cl)c(N)c3F)ccc21 [Compound 1.01],166 to 168,0 to 29,0 to 29,30 to 44,0 to 29,45 to 59,0 to 29,0 to 29,0 to 29,0 to 29,0 to 29,0 to 29,95 to 100,95 to 100,95 to 100,0 to 29,75 to 84,75 to 84,0 to 29,0 to 29,"pest or weed control at 140 g/ha [2, 9]: 0 to 29%; pest or weed control at 35 g/ha [2, 10]: 0 to 29%; pest or weed control at 140 g/ha [2, 10]: 75 to 84%; pest or weed control at 35 g/ha [2, 11]: 0 to 29%; pest or weed control at 70 g/ha [2, 11]: 0 to 29%; pest or weed control at 140 g/ha [2, 11]: 0 to 29%; pest or weed control at 35 g/ha [2, 12]: 0 to 29%; pest or weed control at 70 g/ha [2, 12]: 0 to 29%; pest or weed control at 140 g/ha [2, 12]: 0 to 29%; pest or weed control at 35 g/ha [2, 13]: 0 to 29%; pest or weed control at 70 g/ha [2, 13]: 0 to 29%; pest or weed control at 140 g/ha [2, 13]: 0 to 29%; pest or weed control at 35 g/ha [2, 14]: 0 to 29%; pest or weed control at 70 g/ha [2, 14]: 95 to 100%; pest or weed control at 140 g/ha [2, 14]: 85 to 94%"
